From patent US12590953B2, “Methods for screening cereblon modifying compounds” (CELGENE CORPORATION, priority 2018, dated 2026)
Entries after “also recorded” stand apart in the source; their conditions may differ. Where two headings read alike, the source gives them in different places.

Experiments:
[1] = target: T1, mouse SALL4 zinc fingers / human cereblon (Homo sapiens, UniProt Q96SW2); assay: In vitro ubiquitination of mouse SALL4 zinc fingers by human cereblon; format: biochemical; details: thalidomide vs DMSO
T1 construct: Human cereblon-DDB1 (cereblon amino acids 40-442 and full length DDB1); the mouse SALL4 zinc finger amino acids 410-438 (orthologous to human ZF2); ZZ-domain-6xHis-thrombin site (N, cleaved yes); made in house; host or cells: SF9 insect cells (cereblon-DDB1, Cul4A-Rbx1); E. coli BL21 (DE3) Star (MBP-zinc finger)
T1 sequence (Q96SW2 40-442): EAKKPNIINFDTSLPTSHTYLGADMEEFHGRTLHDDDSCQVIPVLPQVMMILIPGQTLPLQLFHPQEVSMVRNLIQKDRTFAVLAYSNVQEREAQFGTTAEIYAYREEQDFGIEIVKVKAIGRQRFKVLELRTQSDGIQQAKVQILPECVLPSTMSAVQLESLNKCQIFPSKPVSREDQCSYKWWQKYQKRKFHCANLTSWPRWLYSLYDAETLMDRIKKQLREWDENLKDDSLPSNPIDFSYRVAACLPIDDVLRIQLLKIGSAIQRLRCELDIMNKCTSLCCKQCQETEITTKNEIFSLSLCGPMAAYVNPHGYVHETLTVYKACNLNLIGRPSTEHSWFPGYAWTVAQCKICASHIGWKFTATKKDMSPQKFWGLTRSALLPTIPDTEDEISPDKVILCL
T1 sequence (Q16531 whole entry partner, the tested form may be a part): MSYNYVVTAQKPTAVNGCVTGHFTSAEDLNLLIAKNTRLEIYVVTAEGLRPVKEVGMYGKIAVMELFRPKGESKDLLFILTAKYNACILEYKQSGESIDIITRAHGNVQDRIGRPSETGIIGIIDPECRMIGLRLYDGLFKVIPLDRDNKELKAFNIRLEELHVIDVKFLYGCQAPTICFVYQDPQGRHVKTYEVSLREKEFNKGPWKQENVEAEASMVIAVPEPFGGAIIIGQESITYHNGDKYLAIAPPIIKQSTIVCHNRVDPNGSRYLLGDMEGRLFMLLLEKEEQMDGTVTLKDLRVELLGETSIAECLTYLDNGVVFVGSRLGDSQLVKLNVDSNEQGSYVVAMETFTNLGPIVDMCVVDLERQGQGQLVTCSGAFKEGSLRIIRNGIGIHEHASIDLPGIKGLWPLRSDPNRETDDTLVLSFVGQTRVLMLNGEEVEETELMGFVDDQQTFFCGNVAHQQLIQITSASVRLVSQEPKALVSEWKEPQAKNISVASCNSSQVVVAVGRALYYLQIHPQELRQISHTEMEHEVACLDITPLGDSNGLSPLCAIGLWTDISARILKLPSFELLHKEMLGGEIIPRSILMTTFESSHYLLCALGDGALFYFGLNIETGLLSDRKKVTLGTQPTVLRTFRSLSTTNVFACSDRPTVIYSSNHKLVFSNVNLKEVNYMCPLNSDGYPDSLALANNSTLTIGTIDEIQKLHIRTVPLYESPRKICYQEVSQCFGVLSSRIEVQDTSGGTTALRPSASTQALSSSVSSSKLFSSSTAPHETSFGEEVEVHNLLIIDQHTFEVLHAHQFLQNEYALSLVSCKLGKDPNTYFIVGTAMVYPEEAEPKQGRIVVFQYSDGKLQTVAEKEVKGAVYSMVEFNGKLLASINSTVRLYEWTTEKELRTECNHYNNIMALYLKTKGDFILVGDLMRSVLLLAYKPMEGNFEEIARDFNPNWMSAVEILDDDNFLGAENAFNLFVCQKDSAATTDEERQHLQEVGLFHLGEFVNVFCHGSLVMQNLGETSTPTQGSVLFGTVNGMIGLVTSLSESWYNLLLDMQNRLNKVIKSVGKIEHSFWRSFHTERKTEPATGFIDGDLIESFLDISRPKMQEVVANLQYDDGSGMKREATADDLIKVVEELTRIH
Method: (§1) Full length human cereblon, full length mouse cereblon, and full length rabbit cereblon were co-expressed with full length human DDB1 in SF9 insect cells in ESF921 medium in the presence of 50 uM zinc acetate. Cells were resuspended in buffer containing 50 mM Tris-HCl pH 7.5, 500 mM NaCl, 10 mM imidazole, 10% glycerol, 2 mM TCEP, 1× Protease Inhibitor Cocktail (San Diego Bioscience), and 40,000 U Benzonase (Novagen), and sonicated for 30 s. Lysate was clarified by high speed spin at 30,000 rpm for 30 minutes, and clarified lysate was incubated with Ni-NTA affinity resin (Qiagen) for 1 hour. Complex was eluted with buffer containing 500 mM imidazole, and the ZZ-domain-6×His tag removed by thrombin cleavage (Enzyme Research) overnight, combined with dialysis in 10 mM imidazole buffer. Cleaved eluate was incubated with Ni-NTA affinity resin (Qiagen), and the flow-through diluted to 200 mM NaCl for further purification over a Sephacryl S-400 16/60 column (GE Healthcare) in buffer containing 10 mM HEPES pH 7.0, 240 mM NaCl, and 3 mM TECP.
(§2) Purified E1, E2, ubiquitin, Cul4A-Rbx1, cereblon-DDB1, and GSPT1 proteins were used to reconstitute the ubiquitination of MBP-fused WT and mutant proteins in vitro. Substrate proteins purified by maltose affinity resin (NEB) were incubated at an approximate concentration of 30 uM. […]

[2] = target: T2, mouse SALL4 zinc fingers / human cereblon (UniProt Q8BX22+Q96SW2); assay: as above; format: biochemical; details: with thalidomide
T2 construct: Human cereblon-DDB1 (cereblon amino acids 40-442 and full length DDB1); the mouse SALL4 zinc finger amino acids 410-438 (orthologous to human ZF2); ZZ-domain-6xHis-thrombin site (N, cleaved yes); made in house; host or cells: SF9 insect cells (cereblon-DDB1, Cul4A-Rbx1); E. coli BL21 (DE3) Star (MBP-zinc finger)
T2 sequence (Q96SW2 40-442): as the sequence (Q96SW2 40-442) above
T2 sequence (Q16531 whole entry partner, the tested form may be a part): as the sequence (Q16531 whole entry partner, the tested form may be a part) above
T2 sequence (Q8BX22 410-438): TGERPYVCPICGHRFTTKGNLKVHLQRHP
Method: as §1, §2

[3] = target: T3, endogenous SALL4 in NCCIT, NETRA-2 c1.D1 and AN3-CA cancer cell lines (Homo sapiens, UniProt Q96SW2+Q9UJQ4); assay: Degradation of endogenous SALL4 in cancer cell lines, western blot; format: cell-based; details: 16 hour treatment; anti-SALL4 western blot
T3 construct: endogenous in cells; host or cells: NCCIT, NETRA-2 c1.D1 and AN3-CA cancer cell lines

[4] = system: huCRBN mice; format: in vivo; details: for Live fetuses: female, HOM huCRBN (humanized cereblon)
Method: Thalidomide was administered to female HOM huCRBN mice by oral gavage at dose levels of 0 (1.0% [w/v] carboxymethylcellulose [1500-3000 cP] in RO deionized water), 100, 300, or 1000 mg/kg/day once daily on Gestation Day [GD] 6 through 15. On GD 15, blood samples were collected from the submandibular vein of mice assigned to study at 0.5, 1, 3, 6, and 24 hours postdose for bioanalytical and toxicokinetic evaluation. […] Mice were euthanized and examined, and a gross necropsy was performed. The ovaries and uterus were examined for number and distribution of corpora lutea, implantation sites, placentae (size, color, and shape), live and dead fetuses, and early and late resorptions. Fetuses were euthanized by an intraperitoneal injection of sodium pentobarbital (390 mg/mL). Fetuses were weighed and examined for sex and external abnormalities. Late resorptions were examined for external abnormalities and sex to the extent possible. The body weight of each fetus was recorded. Fetuses were individually identified with the study number, litter number and uterine distribution. Approximately one-half of the fetuses in each litter were examined for visceral abnormalities by using an adaptation of the sectioning technique of Wilson. Each fetus was fixed in Bouin's solution; sections were stored in alcohol. The remaining fetuses (approximately one-half of the fetuses in each litter) were examined for skeletal abnormalities after staining with alizarin red S. Following examination, skeletal preparations were retained in glycerin with thymol added as a preservative.

Compound: O=C1CCC(N2C(=O)c3ccccc3C2=O)C(=O)N1 (centres unmarked) [thalidomide]
- Ubiquitination of all 4 glycine-motif mouse SALL4 zinc fingers by human cereblon [1]: none of them were efficiently ubiquitinated by either mouse cereblon or human cereblon; also recorded: not efficiently ubiquitinated by human or mouse cereblon
- Ubiquitination of mouse SALL4 zinc finger (orthologous to human ZF2) by human cereblon [2]: not able to ubiquitinate the mouse SALL4 zinc finger; also recorded: not efficiently ubiquitinated by mouse or human cereblon
- Degradation of endogenous SALL4 [3]: Significant compound-dependent degradation of endogenous SALL4 was observed
- Maternal survival ([4]; female huCRBN mice, 0, 100, 300, or 1000 mg/kg/day, GD 6 through 15): All animals survived to scheduled necropsy on GD 18
- Live fetuses ([4]; mouse, in vivo, 100 mg/kg/day): 9
- Live fetuses ([4]; mouse, in vivo, 300 mg/kg/day): 7
- Live fetuses ([4]; mouse, in vivo, 1000 mg/kg/day): 8
- Limb defects (fetal skeleton, alizarin red S) ([4]; mouse, in vivo, 1000 mg/kg): limb defects were not observed
